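Where inhibition never reached the appropriate level, the endpoint shown equals the highest concentration tested. Otherwise, values were interpolated linearly from a five-concentration, 48-hour dose response in 96-well plates. GI50: concentration for 50% inhibition of growth. The concentration for full growth arrest is given as TGI.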 Some results are limits rather than exact numbers.

Drawing on PubChem BioAssay (NCI), this text covers TGI and GI50 for 30 molecules.

Among the test systems are DLD-1 colon; DMS 114 small cell lung; DMS 273 small cell lung; KM20L2 colon; M19-MEL melanoma; MDA-MB-435; MDA-N; NCI/ADR-RES ovarian.
Assay in all cases: inhibition of tumour cell growth, NCI panel, 48 h

For `COc1cc(C=C2C(=O)NC(=O)NC2=O)cc(OC)c1OC`, the TGI in the assay on DLD-1 colon, in the assay with DMS 114 small cell lung, in the assay with DMS 273 small cell lung, in the assay on KM20L2 colon and in the assay with M19-MEL melanoma was greater than 100 µM each time.
For `O=C(Cc1ccccc1)NN1C(=O)C(Cl)C1c1cc(Br)ccc1O` (stereo not given), the TGI was greater than 100 µM with DLD-1 colon; 8.77 µM in the assay on DMS 114 small cell lung; greater than 100 µM in the assay with DMS 273 small cell lung; greater than 100 µM with KM20L2 colon; 23.3 µM with M19-MEL melanoma.
On to `C=C1C(=O)O[C@@H]2/C=C(\C)CC/C=C(/COC(C)=O)C[C@@H](OC(C)=O)[C@@H]12`, for which the values for the TGI in the assay with MDA-MB-435, with MDA-N and in the assay on NCI/ADR-RES ovarian were 54.4 µM, 20.5 µM and 57.8 µM, respectively.
In the case of `Cc1ccn2c(c1)nc1nc3ccccc3nc12`, the TGI in the assay on DLD-1 colon, in the assay with DMS 114 small cell lung, in the assay on DMS 273 small cell lung, in the assay on KM20L2 colon and with M19-MEL melanoma was greater than 100 µM in each case.
Regarding `N=C1C(c2nc3ccccc3s2)=C(O)CN1c1cc(C(F)(F)F)ccc1Cl`, in the assay on MDA-MB-435, the GI50 was 4.14 µM and the TGI was 36.1 µM. For the same molecule, in the assay with NCI/ADR-RES ovarian, the GI50 was 7.45 µM and the TGI was determined as 37.6 µM.
On to `COc1ccc(-c2n[nH]nc2-c2cc(OC)c(OC)c(OC)c2)cc1`, for which, in the assay with MDA-MB-435, the GI50 is less than 0.01 µM and the TGI is less than 0.01 µM.
Turning to `COC(=O)C1=CNC=C(C(=O)OC)C1C1=CC(=O)C(C)=CC1=O`, in the assay with MDA-MB-435, the GI50 is 15.9 µM and the TGI was 29.5 µM. Also, in the assay with NCI/ADR-RES ovarian, the GI50 was 16.5 µM and the TGI was found to be 31.2 µM.
Consider `C1=CC2SSSC2C1` (stereo not given), for which the TGI with DLD-1 colon, in the assay on DMS 114 small cell lung, in the assay on DMS 273 small cell lung, with KM20L2 colon and in the assay on M19-MEL melanoma was greater than 100 µM each time.
Regarding `COC1=C(C)C(=O)c2c(c(COC(N)=O)c3n2CC2C3N2C)C1=O` (stereo not given), the TGI came to 0.0921 µM in the assay on MDA-MB-435, 0.136 µM in the assay with MDA-N and 0.336 µM in the assay with NCI/ADR-RES ovarian.
For the molecule `CC(C)n1nc(-c2cc3cc(O)ccc3[nH]2)c2c(N)ncnc21`, in the assay with MDA-MB-435, the GI50 was 0.219 µM and the TGI was 1.77 µM. Further, in the assay on NCI/ADR-RES ovarian, the GI50 was 0.348 µM and the TGI was 7.22 µM.
In the case of `CCOC(=O)c1c(C)n(Cc2ccc(Cl)cc2Cl)c2c1c(CN(C)C)c(O)c1[nH]cnc12`, in the assay with MDA-MB-435, the GI50 is 23.6 µM and the TGI was 51.1 µM.
For `COc1ccc(Cn2cc3c(c2-c2ccccc2)CC(C)(C)c2cnoc2-3)cc1`, in that order: 0.279 µM and 1.01 µM.
With `O=S(=O)(N=S(c1ccccc1)c1ccccc1)c1ccccc1`, the TGI in the assay on MDA-MB-435 and in the assay with NCI/ADR-RES ovarian was greater than 100 µM in each case.
Turning to `NS(=O)(=O)c1ccc(N=Nc2c(O)[nH]c3ccc(-c4cnco4)cc23)cc1`, in the assay on MDA-MB-435, the GI50 was greater than 25 µM and the TGI was greater than 25 µM. Also, in the assay on NCI/ADR-RES ovarian, the GI50 is greater than 25 µM and the TGI was greater than 25 µM.
Turning to `COc1cc2c3c(n(CCCNC(=O)OCC4c5ccccc5-c5ccccc54)c(=O)c2cc1OC)-c1cc2c(cc1/C3=C\CCNC(=O)OCC1c3ccccc3-c3ccccc31)OCO2`, in the assay on MDA-MB-435, the GI50 was greater than 28.9 µM and the TGI was 49 µM. For the same molecule, in the assay on NCI/ADR-RES ovarian, the GI50 was greater than 38 µM and the TGI is greater than 50 µM.
With `O=C(N/N=C/c1ccccc1)c1c(-c2cccnc2)cnc2ccccc12`, the TGI in the assay with MDA-N and in the assay with NCI/ADR-RES ovarian was greater than 100 µM throughout.
As for `Oc1cccnc1CN1CCCCC1`, the TGI in the assay with MDA-MB-435, with MDA-N and in the assay with NCI/ADR-RES ovarian was greater than 100 µM each time.
On to `O=C1OC(c2ccccc2)=N/C1=C\c1cccc2ccccc12`, for which the TGI in the assay with DLD-1 colon, in the assay with DMS 114 small cell lung, in the assay on DMS 273 small cell lung and in the assay on M19-MEL melanoma was greater than 100 µM each time.
For `CCCCCCCC/C=C/CCCCCCCC(=O)OC[C@H]1O[C@@H](n2ccc(N)nc2=O)C(F)(F)[C@@H]1O`, in the assay on MDA-MB-435, the GI50 is less than 0.0266 µM and the TGI was greater than 100 µM. For the same molecule, in the assay on NCI/ADR-RES ovarian, the GI50 was less than 0.0217 µM and the TGI is greater than 100 µM.
With `O=C(NC1=CC(=O)c2ccccc2C1=O)c1ccccc1`, in the assay on MDA-MB-435, the GI50 is 0.94 µM and the TGI was 2.29 µM. Besides, in the assay on NCI/ADR-RES ovarian, the GI50 is 1.26 µM and the TGI is 14.9 µM.
Turning to `Nn1c(=O)n(Cc2ccccc2)n(-c2ccccc2)c1=O`, the TGI in the assay with DLD-1 colon and in the assay on DMS 273 small cell lung was greater than 100 µM in each case.
On to `Cc1cccc(N2CCN(C(=S)c3ccc4c(c3)OCO4)CC2)c1`, for which, in the assay on NCI/ADR-RES ovarian, the GI50 is 0.338 µM and the TGI is greater than 100 µM.
Take `C=C1C(=O)O[C@H]2[C@H]1CC/C(COC(=O)C(=O)c1cn(Cc3ccccc3)c3ccccc13)=C\CC[C@@]1(C)O[C@@H]21`: in the assay with MDA-MB-435, the GI50 is 2.41 µM and the TGI is 7.77 µM. Besides, in the assay on NCI/ADR-RES ovarian, the GI50 was 2.75 µM and the TGI turned out to be 9.83 µM.
The corresponding values for `Cc1cc(S(=O)(=O)Nc2nnc(-c3ccccc3)c(-c3ccccc3)n2)c(SCC(N)=O)cc1Cl` are 51.5 µM, greater than 100 µM, greater than 100 µM and greater than 100 µM.
With `CN1C(=O)c2cccc3cc([N+](=O)[O-])cc(c23)C1=O`, the TGI with MDA-MB-435, in the assay with MDA-N and in the assay on NCI/ADR-RES ovarian was greater than 10 µM in each case.
For `CC(C)(C)c1cc(C(C)(C)C)cc(S(=O)(=O)Nc2cc3ccccc3cc2C(=O)NCCN)c1`, the GI50 with MDA-MB-435 was 1.68 µM; with NCI/ADR-RES ovarian, 2.37 µM. The TGI was 3.18 µM in the assay on MDA-MB-435 and 6.54 µM in the assay with NCI/ADR-RES ovarian.
The corresponding values for `COc1cc2ncnc(Nc3ccc(C)c(O)c3)c2cc1OC` are greater than 25 µM, 16.4 µM, greater than 25 µM and greater than 25 µM.
The corresponding values for `CCCCC(O)(c1ccc(Cl)cc1)C(CN1CCOCC1)c1ccc(Cl)cc1` (stereo not given) are 15.3 µM, 12 µM, 39 µM and 32.2 µM.
As for `OC[C@H]1CCCC1O` (stereo not given in full), the TGI in the assay with MDA-MB-435, in the assay with MDA-N and with NCI/ADR-RES ovarian was greater than 100 µM in each case.
On to `Clc1ccc(C2=Nn3c(COc4ccccc4Cl)nnc3SC2)c(Cl)c1`, for which, in the assay on MDA-MB-435, the GI50 is 20.1 µM and the TGI turned out to be 84.5 µM. Further, in the assay on NCI/ADR-RES ovarian, the GI50 was greater than 100 µM and the TGI is greater than 100 µM.
